# Laboratory results: patent US10906864B2, “Nitroalkene non steroidal anti-inflammatory drugs (NA-NSAIDS) and methods of treating inflammation related conditions” (Institut Pasteur de Montevideo, priority 2017, dated 2021)
# Assays:
# [1] = test system: NF-κB and inflammasome function in macrophages (THP-1 cells); experiment: IL-1β secretion by ELISA in PMA-differentiated THP-1 macrophages stimulated with LPS and ATP; type: cell-based
# Method: In order to compare benzoic acid (BA) and nitroalkene benzoic acid (BANA) over NF-κB and inflammasome function in macrophages, THP-1 cells were differentiated into macrophages with PMA (200 nM, 48 h). Cells were then stimulated with LPS (250 ng/mL) and with ATP (5 mM, 45 minutes). Together with LPS (1st signal, FIG. 6) or ATP (2nd signal, FIG. 7), cells were treated with Benzoic acid (30 μM) or BANA (30 μM). Supernatants were collected and IL-1β secretion was measured by ELISA. […] Thus, BANA inhibits both the generation of the inflammasome, and inhibits the inflammasome itself. Further exemplary studies were performed with Flufenamate (FluFE) and nitroalkene flufenamate (FluFENA). In order to study the effect of Flufenamate (FluFE) and FluFENA over NF-κB and inflammasome function in macrophages, THP-1 cells were differentiated into macrophages with PMA (200 nM, 48 h). Cells were stimulated with LPS (250 ng/mL) and then with ATP (5 mM, 45 minutes). […] Cells were stimulated with LPS (250 ng/mL) and then with ATP (5 mM, 45 minutes). Together with LPS (1st signal, FIG. 10) or ATP (2nd signal, FIG. 11), cells were treated with Ibuprofen (20 μM) or IBUNA ([…] were collected and IL-1β secretion was measured by ELISA.
# [2] = test system: in vivo model of peritonitis; experiment: In vivo model of peritonitis (LPS-induced inflammatory response), IL-1β by ELISA; parameters: species or system Mice
# Method: Mice were treated with BANA, Benzoic Acid (50 mg/kg, IP) or the vehicle (100 mM Phosphate buffer 10% DMSO) for 1 hour. Then were injected with LPS (10 mg/kg, IP) or PBS for 2 hours. Mice were collected for peritoneal wash and blood samples were extracted. The peritoneal wash and plasma were stored to measure IL-1β by ELISA. The values are show as mean±SD from three mice per condition and we have used the statistic test one-way ANOVA with Bonferroni.
# [3] = mice, 50 mg/kg IP 1 hour before LPS 10 mg/kg IP for 2 hours, as opposed to BA
smiles,measurement,setting,value
"O=C(O)c1ccc(/C=C/[N+](=O)[O-])cc1 [BANA, (E)-4-(2-nitrovinyl)benzoic acid]","IL-1β secretion, treatment together with LPS (1st signal)","[1]; 30 μM, LPS 250 ng/mL then ATP 5 mM 45 minutes, FIG. 6",inhibition of IL-1β secretion in cells stimulated by LPS
same,"IL-1β secretion, treatment together with ATP (2nd signal)","[1]; 30 μM, LPS 250 ng/mL then ATP 5 mM 45 minutes, FIG. 7",inhibition of IL-1β secretion in cells stimulated by ATP
same,IL-1β release in LPS-induced inflammatory response (FIG. 12 legend),[2]; in vivo,in vivo inhibition of IL-1β release
same,level of IL-1β in blood plasma,[2]; [3],marked decrease
same,level of IL-1β in peritoneal wash,[2]; [3],marked decrease
"O=C(O)c1cc(/C=C/[N+](=O)[O-])ccc1Nc1cccc(C(F)(F)F)c1 [FluFENA, (E)-5-(2-nitrovinyl)-2-((3-(trifluoromethyl)phenyl)amino)benzoic acid]","IL-1β secretion, treatment together with LPS (1st signal) or ATP (2nd signal), versus Flufenamate (FluFE)","[1]; FluFE (5 μM) or FluFENA (5), FIG. 8 and FIG. 9",unexpected advantage
"CC(C)Cc1ccc(C(C)C(=O)O)cc1/C=C/[N+](=O)[O-] (stereo not shown) [IBUNA, (E)-2-(4-isobutyl-3-(2-nitrovinyl)phenyl)propanoic acid]","IL-1β secretion, treatment together with LPS (1st signal) or ATP (2nd signal), versus Ibuprofen","[1]; Ibuprofen (20 μM) or IBUNA (20), FIG. 10 and FIG. 11",unexpected superiority
